# Data taken from patent US20030032771A1, “Peptide inhibitors of cellular proliferation” (priority 2001, published 2003).
# Tested on: Drosophila early embryos (syncytial blastoderm)
# Assay: Cytological analysis of mitosis in live Drosophila melanogaster embryos after microinjection (time-lapse confocal microscopy)
# Assay type: in vivo
# Method: Embryo microinjections. Microinjections of 0-2 hour Drosophila embryos were carried out as described previously (Sharp et al., J. Cell Biol. 144:125-138 (1999)). Briefly, embryos were initially injected with rhodamine-conjugated bovine tubulin (purchased from Molecular Probes or made in our own laboratory) allowed to recover for 5 minutes and then injected with antibodies or with buffer alone for controls. Because, in our hands, tubulin injections prior to the cortical migration of nuclei at cycle 10 […] normally halts development, embryos were injected with antibodies during cycle 11.
# Time-lapse laser scanning confocal microscopy. All images were acquired on a Leica TCS SP confocal microscope run by the Leica TCS software. Time-series were generated using the ‘Time Series’ function contained in the control panel. Each image results from two accumulated (averaged) scans of the sample and new images were acquired every 5 seconds. Because changes in the MT arrays of early embryos occur so quickly, all of the images shown and analyzed in this study represent 1 focal plane (no z-series' were performed). This allowed for the highest temporal and spatial resolution with the least amount of bleaching and other damage resulting from multiple laser scans.
# The peptide expressed as described in Example 1 was delivered to Drosophila early embryos (synicytial blastoderm) by microinjections. Drosophila is a much studied organism; its genome has been fully sequenced and its genetics and biochemistry are well understood. In addition, it provides a convenient system for live cytological analyses of mitosis. In the early embryo (syncytial blastoderm) the nuclei form a two-dimensional sheet interconnected by cytoplasm, which proceed through mitosis meta-cynchronously. Because of this, it is possible to inject fluorescent probes like rhodamine tubulin into fly embryos that are transgenically carrying Green Fluorescent protein (GFP)-labeled chromosomes to watch chromosome move on spindle microtubules in real-time. […]
sequence,measurement,setting,value
GEKETPVQKCQRLQIEMNELLNEVAALQVDRKVADEEKQSYDAVVATVISTAR (Drosophila melanogaster) [peptide underlined in FIG. 4],formation of two daughter nuclei on mitotic spindles (chromosome separation from the metaphase plate),"embryo microinjected with peptide, still images at about 80 seconds intervals, FIG. 5 panels C-E, rhodamine tubulin, GFP-histone",no spindles upon which two daughter nuclei are formed
same,defects in spindle structure,"embryos injected with the peptide, during mitosis",no significant defects in spindle structure
same,ability of chromosomes to separate in proliferative cells,"initial studies, peptide-injected Drosophila embryos",strongly and specifically inhibits
